# Measurements: patent publication US20200124600A1, “METHODS OF TREATING AUTOIMMUNE AND INFLAMMATORY DISEASES” (Genentech, Inc., priority 2017, published 2020)
# Columns and labels:
# human memory B cells [1] = experiment: CD40L induced plasmablast differentiation of memory B cells, flow cytometry; type: cell-based
# Text: It was confirmed that plasmablast differentiation was regulated by Bruton's Tyrosine Kinase (BTK) activity by performing an in vitro plasmablasts differentiation assay where human memory B cells were put into differentiating conditions, and were subsequently measured after 5 days using flow cytometry quantification for CD20^loCD38^++ plasmablasts. […] GDC-0852 is (S)-2-(5-Fluoro-2-(hydroxymethyl)-3-(1-methyl-5-(5-(2-methyl-4-(oxetan-3-y-1)piperazin-1-yl)pyridin-2-ylamino)-6-oxo-1,6-dihydropyridin-3-yl)-phenyl)-3,4,6,7,8,9-hexahydropyrido[3,4-b]indolizin-1(2H)-one, the structure of which is shown below:
# Plasmablast Differentiation: Memory B cells were isolated from Healthy donor PBMC (Miltenyi Memory B cell isolation kit). […]
# (§1) Statistical analyses were performed using either <> or custom scripts written in the R programming language. […] IC50 values for BTK inhibition was calculated using the GraphPad Prism software. […]
# (§2) Results: The differentiation of B cells into plasmablast can occur through multiple activation stimuli and involves distinct molecular changes. […] We evaluated the effect of the BTK inhibitor GDC-0852 in the plasmablast differentiation process, either by a T cell-mediated response using CD40L stimulation or a T cell-independent response using the Toll-like receptor ligand, CpG.
# human memory B cells [2] = experiment: CpG-mediated plasmablast differentiation of memory B cells, flow cytometry; type: cell-based; settings: B-cell, memory B cells from healthy donors, ODN2006 5 ug/ml plus cytokines, n=3, read-out: IC50 potency, inhibition of CpG-mediated plasmablast differentiation
# Method: (§3) Plasmablast Differentiation: Memory B cells were isolated from Healthy donor PBMC (Miltenyi Memory B cell isolation kit). For the Plasmablast differentiation, 1.5×10^5/ml memory B cells were then cultured in the presence of a cocktail of cytokines, IL-2(20 U/ml), IL-10 (50 ng/ml), IL-15(10 ng/ml), IL-6 (50 ng/ml), IFNa (10 ng/ml) and stimulated with either ODN2006 (TLR-9 ligand) 5 ug/ml, or CD40L (3 ug/ml) for 5 days. The plasmablast differentiation was carried out in the presence of vehicle alone (DMSO) and GDC-0852 at various concentrations, using a 3 fold dose titration of inhibitor starting at 10 uM. Flow cytometry was performed to enumerate ([…]) plasmablast percentages and assess the inhibition by GDC-0852.
# as §1, §2
# [3] = system: plasmablast signature genes IgJ, MZB1, TXNDC5; experiment: Plasmablast signature gene expression in differentiated memory B cells, Fluidigm quantitative RT-PCR; type: cell-based, human; settings: 370 nM vs DMSO, 5 days, n=4 donors
# Method: FIGS. 8A, 8B, 8C and 8D. BTK inhibition reduces the plasmablast gene signature. Memory B cells from 4 healthy donors were differentiated into plasmablasts using conditions described above, in the presence of DMSO vehicle or 370 nM GDC-0852. Expression of plasmablast signature genes was measured by Fluidigm, and normalized to a housekeeping gene (HPRT1). Expression values are plotted as the relative transcript abundance to the housekeeping gene. The plasmablast signature was calculated as the geometric mean of the relative abundances of the three individual genes.
# as §3
# RNA Preparation: RNA was extracted from the cells in culture at 5 days from the DMSO and GDC-0852 (370 nM) treated cells (n=4). Cells were disrupting in RLT buffer using the Qiashredder (Qiagen, Valencia, Calif.) and then RNA was extracted using the RNeasy mini kit (Qiagen) including the on-column DNase digestion. The concentration of total RNA and integrity of RNA samples was determined using the NanoDrop 8000 (Thermo Scientific). The isolated RNA was used for the Fluidigm quantitative RT-PCR analyses.
# QT PCR: cDNA synthesis was performed on 100 ng total-RNA using an iScript cDNA synthesis kit (Biorad, Hercules, Calif.). Gene-specific pre-amplification was performed (Applied Biosystems) for 3 genes (IgJ, MZB1, TXNDC5 including housekeeping genes TMEM55B. RT-PCR was performed using the BioMark 48.48 Dynamic Arrays (Fluidigm Corporation) using the manufacturer's protocol. Data were collected using the BioMark Data Collection Software and CT values were obtained using the BioMark RT-PCR Analysis Software (V.2.1.1, Fluidigm). The relative abundance (dCt) to HPRT1 was calculated: 2 log−(average Ct gene−average Ct HPRT1). For statistical analyses, values below the lower limit of detection were set to be 1 Ct lower than the lowest recorded value.
# as §1
# plasmablast signature [4] = experiment: Plasmablast signature in blood of extra-renal lupus patients, EXPLORER clinical trial; type: in vivo, human; settings: for expression of the plasmablast signature compared to patients treated with azathioprine: screening samples
# Method: (§4) Blood Sample Analysis: 3-gene plasmablast signature expression assay. Blood was collected in PAXgene RNA tubes (PreAnalytiX); total RNA was extracted using commercially available kits according to manufacturer instructions (Qiagen).
# (§5) Alternatively, expression of candidate biomarker genes in blood samples was quantified by Fluidigm qPCR assays. 3-gene score was calculated from the mean of IgJ, TXNDC5 and MZB1, and normalized using reference gene TMEM55B. Blood samples were assessed using this assay developed on the Cobas 4800 platform (Roche Molecular Systems).
# (§6) Plasmablast signature values were collected from two cohorts of moderate to severe lupus patients from phase II clinical trials assessing the safety and efficacy of rituximab in SLE. The cohorts were patients with either lupus nephritis (LUNAR) or extra-renal lupus (EXPLORER). Mixed effects modeling of plasmablast signature values over the course of treatment, incorporating covariates for age, race, concomitant medications, interferon activity, SLEDAI, visit, treatment arm and their interaction, with patient modeled as a random effect, identified a profound decrease in plasmablast signature specifically within the rituximab treated patients (FIG. 4A, 4B). This effect was most apparent in the time points two weeks after receiving rituximab infusion, with diminishing effect over time.
# In the EXPLORER trial, patients were monitored for presence of antibodies directed against mouse-human chimeric antibodies (HACA). […] Using the same linear mixed effects model, as above, a 2.8-fold higher expression of plasmablast marker genes was found in patients that went on to develop HACA (p=0.0007).
# Previous studies identified an association between different immunosuppressive treatments and reduced expression of plasmablast-associated genes.
# plasmablast signature [5] = experiment: Plasmablast signature in blood of lupus nephritis patients, LUNAR clinical trial; type: in vivo, human
# Method: as §4, §5
# as §6, with “time. […]” for “time.”
molecule,measurement,setting,value
"C[C@H]1CN(C2COC2)CCN1c1ccc(Nc2cc(-c3cc(F)cc(N4CCc5c(cc6n5CCCC6)C4=O)c3CO)cn(C)c2=O)nc1 [GDC-0852, (S)-2-(5-Fluoro-2-(hydroxymethyl)-3-(1-methyl-5-(5-(2-methyl-4-(oxetan-3-y-1)piperazin-1-yl)pyridin-2-ylamino)-6-oxo-1,6-dihydropyridin-3-yl)-phenyl)-3,4,6,7,8,9-hexahydropyrido[3,4-b]indolizin-1(2H)-one]",IC50,"human memory B cells [1]; Homo sapiens, B-cell, 120 h, memory B cells from healthy donors, CD40L 3 ug/ml plus cytokines, day 5, FACS, read-out: IC50 potency, inhibition of CD40L induced plasmablast differentiation",0.02 µM
same,inhibition of CD40L induced plasmablast differentiation,"human memory B cells [1]; human memory B cells, measured after 5 days, CD20loCD38++ plasmablasts by flow cytometry",inhibited CD40L induced plasmablast differentiation in a dose-dependent manner
same,IC50,human memory B cells [2],0.048 µM
same,expression of plasmablast signature gene MZB1,[3]; p=0.0023,significant decrease
same,composite plasmablast 3 gene signature,[3]; p=0.0026,significant decrease
same,expression of plasmablast signature gene TXNDC5,[3]; p=0.0032,significant decrease
same,expression of plasmablast signature gene IgJ,[3]; p=0.011,significant decrease
"COc1c(C)c2c(c(O)c1C/C=C(\C)CCC(=O)OCCN1CCOCC1)C(=O)OC2 [mycophenolate, mycophenolate mofetil]",expression of the plasmablast signature compared to patients treated with azathioprine,plasmablast signature [4],much lower expression
same,expression of plasmablast signature genes in patients on treatment at baseline,"plasmablast signature [5]; baseline, relatively few patients in the MMF pool",trend toward lower expression
CN(Cc1cnc2nc(N)nc(N)c2n1)c1ccc(C(=O)N[C@@H](CCC(=O)O)C(=O)O)cc1 [methotrexate],expression of the plasmablast signature compared to patients treated with azathioprine,plasmablast signature [4],much lower expression
rituximab,change in plasmablast signature after treatment in patients that went on to develop anti-drug antibodies (HACA),plasmablast signature [4]; HACA-positive patients,limited to no decrease
same,maximum decrease in plasmablast signature,"plasmablast signature [4]; week 28, two weeks following the fourth infusion, p=2×10^−11",3.48 fold
same,reduction of plasmablast signature expression,"plasmablast signature [5]; week 28 time point, p=0.0011",3.31 fold
